# According to patent US12559481B2, “Quinoline derivatives” (ELANCO ANIMAL HEALTH GMBH, priority 2018, dated 2026):
# Assays:
# [1] = biological target: D. immitis Slo-1 (Dirofilaria immitis, UniProt I0DFK5); assay: In vitro assay 2: D. immitis Slo-1, membrane potential in recombinant CHO cell line; type: cell-based
# [2] = tested on: Adult Nippostrongylus brasiliensis; assay: In vitro assay 3: Nippostrongylus brasiliensis (NIPOBR), acetylcholine esterase readout; settings: read-out: activity (reduction of AChE compared to negative control); for inhibition at 1 µg/mL: 1 μg/ml; for inhibition at 10 µg/mL: 10 μg/ml
# Experimental: In Vitro Assay 3: Nippostrongylus Brasiliensis (NIPOBR)
# Adult Nippostrongylus brasiliensis were washed with saline buffer containing 100 U/ml penicillin, 0.1 mg/ml streptomycin and 2.5 μg/ml amphotericin B. Test compounds were dissolved in DMSO and worms were incubated in medium in a final concentration of 10 μg/ml (10 ppm) respectively 1 μg/ml (1 ppm). An aliquot of the medium was used to determine the acetylcholine esterase activity in comparison to a negative control. The principle of measuring acetylcholine esterase as readout for anthelmintic activity was described in Rapson et al (1986) and Rapson et al (1987).
# [3] = tested on: Dirofilaria immitis microfilariae; assay: In vitro assay 4: Dirofilaria immitis microfilariae (DIROIM L1) motility; settings: 72 h, read-out: EC50 (reduction of motility)
# [4] = tested on: Dirofilaria immitis third-stage larvae; assay: In vitro assay 5: Dirofilaria immitis (DIROIM L4) larval motility; settings: 72 h, read-out: EC50 (reduction of motility)
# [5] = tested on: Cooperia curticei; assay: In vitro assay 6: Cooperia curticei (COOPCU) larval mortality; settings: 120 h, read-out: activity (larval mortality)
# Experimental: In Vitro Assay 6: Cooperia curticei (COOPCU)
# Solvent: Dimethyl Sulfoxide
# Approximately 40 nematode larvae (Cooperia curticei) are transferred into a test tube containing the compound solution.
# After 5 days percentage of larval mortality is recorded. 100% efficacy means all larvae are killed; 0% efficacy means no larvae are killed.
# [6] = tested on: Haemonchus contortus; assay: In vitro assay 7: Haemonchus contortus (HAEMCO) larval mortality; settings: 120 h, read-out: activity (larval mortality)
# Experimental: In Vitro Assay 7: Haemonchus contortus (HAEMCO)
# Solvent: Dimethyl Sulfoxide
# Approximately 40 larvae of the red stomach worm (Haemonchus contortus) are transferred into a test tube containing compound solution.
# After 5 days the percentage of larval mortality is recorded. 100% efficacy means all larvae are killed, 0% efficacy means no larvae are killed.
# [7] = biological target: C. elegans Slo-1a (Caenorhabditis elegans, UniProt Q95V25)
# Experimental: In Vitro Assay 1: C. elegans Slo-1a—Action at a Recombinant C. elegans Cell Line
# Generation of a Stable C. elegans CHO Cell Line
# For transfection with plasmid DNA to express C. elegans Slo-1a (accession number AAL28102) CHO cells were passaged to 40% confluence before adding the transfection solution to the cell culture. The transfection solution included 300 μL OptiMEM (Life Technologies, Nr.: 31985), 2 μL (=6 μg) of plasmid DNA containing the C. elegans Slo 1a gene and 9 μL FugeneHD (Promega, Nr.: E2311), and was added to the cells prior to incubation for 48 hours at 37° C., 5% CO2. The transfection medium was exchanged for the selection medium which contains additional G418 (2 mg/ml, Invitrogen, Nr.: 10131) and the cells were seeded into 384 well plates (300 cells/well). After a few weeks, the remaining surviving cells were tested with a voltage sensitive dye (Membrane Potential Assay Kit, Molecular Devices Nr.: R8034) for K+ channel expression. Positive cell clones were purified by the limited dilution technique. For this the clone with the highest and most robust signal in the voltage sensitive dye assay was further subcloned (incubated) in 384 well plates (0.7 cells/well) in order to obtain clonal purity. This generated a final stable CHO cell line expressing the C. elegans Slo-1a.
# Cells were cultured at 37° C., and 5% CO2 in MEMalpha with Glutamax I (Invitrogen, Nr.: 32571), supplemented with 10% (v/v) heat inactivated fetal bovine serum (Invitrogen, Nr.: 10500), G418 (1 mg/ml. Invitrogen. Nr.: 10131). Cells were detached using Accutase (Sigma. Nr.: A6964).
# Membrane Potential Measurements
# Laboratory compound testing was performed on 384-well microtiter plates (MTPs, Greiner, Nr.: 781092), 8000 cells/well were plated onto 384-well MTPs and cultured for 20 to 24 hours at 37° C., and 5% CO2. After removal of the cell culture medium, the cells were washed once with tyrode (150 mM NaCl, 0.3 mM KCl, 2 mM CaCl2. 1 mM MgCl2. 0.8 mM NaH2PO4, 5 mM Glucose, 28 mM Hepes, pH 7.4) and then loaded with the voltage sensitive dye of the Membrane Potential Assay Kit diluted in tyrode for 1 h at room temperature.
# After starting the measurement of fluorescence using a FLIPR Tetra (Molecular Devices, Exc. 510-545 nm, Emm. 565-625 nm), test compounds were added followed by the addition of KCl tyrode (final assay concentration: 70 mM KCl, 2 mM CaCl2, 1 mM MgCl2, 0.8 mM NaH2PO4, 5 mM Glucose, 28 mM Hepes, pH 7.4, including the voltage sensitive dye). The measurement was completed after 7 minutes.
# The data were evaluated by using the ActivityBase XLfit software (IDBS) for curve fitting and calculation of the half-maximal effective concentration (EC50) and are reported as negative decadic logarithm (pE50).
# [8] = log P by HPLC on reversed phase columns (LC-MS Method 0)
# Experimental: Measurement of log P values was performed according to EEC directive 79/831 Annex V.A8 by HPLC (High Performance Liquid Chromatography) on reversed phase columns with the following methods, instrument(s): Agilent 1100 LC system, Agilent MSD system, HTS PAL; Waters IClass Acquity UPLC, SQD2 (MS), PDA (LV). • ^[a] log P value is determined by measurement of LC-UV, in an acidic range, with 0.1% formic acid in water and acetonitrile as eluent (linear gradient from 10% acetonitrile to 95% acetonitrile). • ^[b] log P value is determined by measurement of LC-UV, in a neutral range, with 0.001 molar ammonium acetate solution in water and acetonitrile as eluent (linear gradient from 10% acetonitrile to 95% acetonitrile).
# Calibration was done with straight-chain alkan-2-ones (with 3 to 16 carbon atoms) with known log P values (measurement of log P values using retention times with linear interpolation between successive alkanones). Lambda-max-values were determined using UV-spectra from 200 nm to 400 nm and the peak values of the chromatographic signals.
# C. elegans Slo-1a, sequence (Q95V25 whole entry): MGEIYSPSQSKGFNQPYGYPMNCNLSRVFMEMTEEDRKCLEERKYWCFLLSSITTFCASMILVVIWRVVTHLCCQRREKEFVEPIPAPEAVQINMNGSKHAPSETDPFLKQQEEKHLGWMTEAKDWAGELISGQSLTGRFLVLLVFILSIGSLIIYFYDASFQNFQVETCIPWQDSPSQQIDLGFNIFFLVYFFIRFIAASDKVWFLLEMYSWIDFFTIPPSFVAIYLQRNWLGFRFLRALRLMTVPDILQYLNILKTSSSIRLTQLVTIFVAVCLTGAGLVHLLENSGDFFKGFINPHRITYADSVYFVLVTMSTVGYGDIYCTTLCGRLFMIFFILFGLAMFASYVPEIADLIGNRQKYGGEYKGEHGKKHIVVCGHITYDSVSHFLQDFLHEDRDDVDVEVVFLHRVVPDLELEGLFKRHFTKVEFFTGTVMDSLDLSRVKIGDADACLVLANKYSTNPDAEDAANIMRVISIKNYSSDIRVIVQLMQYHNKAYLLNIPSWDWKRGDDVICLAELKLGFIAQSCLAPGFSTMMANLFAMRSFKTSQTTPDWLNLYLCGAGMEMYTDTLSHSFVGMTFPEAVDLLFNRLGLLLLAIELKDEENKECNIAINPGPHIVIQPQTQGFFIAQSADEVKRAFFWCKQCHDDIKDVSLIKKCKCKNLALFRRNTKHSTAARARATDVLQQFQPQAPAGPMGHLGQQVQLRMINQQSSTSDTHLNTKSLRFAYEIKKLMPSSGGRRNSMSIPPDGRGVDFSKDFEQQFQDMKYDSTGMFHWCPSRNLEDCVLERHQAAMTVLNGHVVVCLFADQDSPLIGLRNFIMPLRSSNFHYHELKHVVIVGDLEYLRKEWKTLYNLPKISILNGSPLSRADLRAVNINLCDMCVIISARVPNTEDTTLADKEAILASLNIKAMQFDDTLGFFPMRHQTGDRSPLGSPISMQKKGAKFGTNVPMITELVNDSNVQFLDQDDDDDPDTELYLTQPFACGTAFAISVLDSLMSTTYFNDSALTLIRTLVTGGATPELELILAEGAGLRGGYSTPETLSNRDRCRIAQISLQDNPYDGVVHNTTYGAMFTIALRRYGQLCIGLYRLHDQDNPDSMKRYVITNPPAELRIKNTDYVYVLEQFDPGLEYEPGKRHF
# D. immitis Slo-1, sequence (I0DFK5 1-1119): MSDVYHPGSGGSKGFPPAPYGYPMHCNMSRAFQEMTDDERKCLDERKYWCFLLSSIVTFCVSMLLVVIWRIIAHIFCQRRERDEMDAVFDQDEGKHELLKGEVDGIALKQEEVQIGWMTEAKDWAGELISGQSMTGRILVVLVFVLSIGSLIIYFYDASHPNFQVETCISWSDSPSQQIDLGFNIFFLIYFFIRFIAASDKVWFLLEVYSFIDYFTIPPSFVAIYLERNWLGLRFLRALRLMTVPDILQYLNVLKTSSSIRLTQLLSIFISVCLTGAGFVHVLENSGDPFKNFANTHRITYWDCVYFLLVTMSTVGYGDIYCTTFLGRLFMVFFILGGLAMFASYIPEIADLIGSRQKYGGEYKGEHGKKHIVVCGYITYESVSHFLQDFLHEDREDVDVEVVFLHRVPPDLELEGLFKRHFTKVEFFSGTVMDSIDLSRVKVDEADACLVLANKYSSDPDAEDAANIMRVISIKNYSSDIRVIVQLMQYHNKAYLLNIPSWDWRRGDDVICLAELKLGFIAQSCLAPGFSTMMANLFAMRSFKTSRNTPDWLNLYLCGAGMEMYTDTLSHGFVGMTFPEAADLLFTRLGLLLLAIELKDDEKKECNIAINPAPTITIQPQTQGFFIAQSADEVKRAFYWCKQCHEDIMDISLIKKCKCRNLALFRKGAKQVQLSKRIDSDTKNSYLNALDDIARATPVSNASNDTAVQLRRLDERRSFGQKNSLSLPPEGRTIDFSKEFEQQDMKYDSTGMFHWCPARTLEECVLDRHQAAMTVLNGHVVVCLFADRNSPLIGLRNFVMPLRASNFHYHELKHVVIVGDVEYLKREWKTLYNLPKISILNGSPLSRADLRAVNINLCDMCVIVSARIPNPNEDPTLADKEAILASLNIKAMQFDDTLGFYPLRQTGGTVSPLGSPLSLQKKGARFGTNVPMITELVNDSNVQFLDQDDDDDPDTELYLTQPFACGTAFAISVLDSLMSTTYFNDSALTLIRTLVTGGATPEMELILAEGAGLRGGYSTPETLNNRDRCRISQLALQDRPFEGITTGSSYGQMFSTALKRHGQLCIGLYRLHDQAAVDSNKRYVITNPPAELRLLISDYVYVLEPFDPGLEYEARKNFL
Compound,EC50 [1],inhibition at 1 µg/mL [2],inhibition at 10 µg/mL [2],EC50 [3],EC50 [4],mortality at 0.8 ppm [5],mortality at 4 ppm [5],mortality at 20 ppm [5],mortality at 20 ppm [6],EC50 [7],mortality at 4 ppm [6],chromatographic logP [8]
O=C(NC1COc2ccccc21)c1cnc2c(-c3cc(F)cc(F)c3F)cccc2c1C1CCOCC1 (racemic) [Example 17],316 to 5010 nM,> 80%,> 80%,< 0.1 µg/mL,< 0.1 µg/mL,,,,,,,
"O=C(N[C@H]1CCOc2ccccc21)c1cnc2c(-c3cc(F)cc(F)c3F)cccc2c1C1=CCOCC1 [Example 1, N-[(4S)-3,4-Dihydro-2H-chromen-4-yl]-4-(3,6-dihydro-2H-pyran-4-yl)-8-(2,3,5-trifluorophenyl)quinoline-3-carboxamide]",31.6 to 316 nM,> 80%,,< 0.1 µg/mL,< 0.1 µg/mL,90%,90%,90%,80%,< 3.16 nM,,
"O=C(N[C@H]1CCOc2ccccc21)c1cnc2c(-c3cc(F)cc(F)c3F)cccc2c1C1CCOCC1 [Example 2, N-[(4S)-3,4-Dihydro-2H-chromen-4-yl]-4-(tetrahydro-2H-pyran-4-yl)-8-(2,3,5-trifluorophenyl)quinoline-3-carboxamide]",3.16 to 31.6 nM,> 80%,> 80%,< 0.1 µg/mL,< 0.1 µg/mL,100%,100%,,90%,< 3.16 nM,90%,
"O=C(N[C@H]1CCOc2ccccc21)c1cnc2c(-c3cc(F)cc(F)c3F)c(F)ccc2c1C1CCOCC1 [Example 3, N-[(4S)-3,4-Dihydro-2H-chromen-4-yl]-7-fluoro-4-(tetrahydro-2H-pyran-4-yl)-8-(2,3,5-trifluorophenyl)quinoline-3-carboxamide]",3.16 to 31.6 nM,> 80%,> 80%,< 0.1 µg/mL,< 0.1 µg/mL,,,,,,,
"CCc1c(C(=O)N[C@H]2CCOc3ccccc32)cnc2c(-c3cc(F)cc(F)c3F)c(F)ccc12 [Example 4, N-[(4S)-3,4-Dihydro-2H-chromen-4-yl]-4-ethyl-7-fluoro-8-(2,3,5-trifluorophenyl)quinoline-3-carboxamide]",3.16 to 31.6 nM,> 80%,> 80%,< 0.1 µg/mL,< 0.1 µg/mL,,,,,< 3.16 nM,,
"O=C(N[C@H]1CCOc2ccccc21)c1cnc2c(-c3cc(F)cc(F)c3F)c(F)ccc2c1N1CC(F)C1 [Example 5, N-[(4S)-3,4-Dihydro-2H-chromen-4-yl]-7-fluoro-4-(3-fluoroazetidin-1-yl)-8-(2,3,5-trifluorophenyl)quinoline-3-carboxamide]",3.16 to 31.6 nM,> 80%,> 80%,< 0.1 µg/mL,< 0.1 µg/mL,,,,,3.16 to 31.6 nM,,1.93
"O=C(N[C@H]1CCOc2ccccc21)c1cnc2c(-c3cc(F)cc(F)c3F)c(F)ccc2c1C1=CCOCC1 [Example 6, N-[(4S)-3,4-dihydro-2H-chromen-4-yl]-4-(3,6-dihydro-2H-pyran-4-yl)-7-fluoro-8-(2,3,5-trifluorophenyl)quinoline-3-carboxamide]",3.16 to 31.6 nM,> 80%,> 80%,< 0.1 µg/mL,< 0.1 µg/mL,,,,,,,
"COc1ccc2c(C3CCOCC3)c(C(=O)N[C@H]3CCOc4ccccc43)cnc2c1-c1cc(F)cc(F)c1F [Example 7, N-[(4S)-3,4-dihydro-2H-chromen-4-yl]-7-methoxy-4-(tetrahydro-2H-pyran-4-yl)-8-(2,3,5-trifluorophenyl)quinoline-3-carboxamide]",3.16 to 31.6 nM,> 80%,> 80%,< 0.1 µg/mL,< 0.1 µg/mL,,,,,< 3.16 nM,,
O=C(NC1CCSc2ccc(F)cc21)c1cnc2c(-c3cc(F)cc(F)c3F)c(F)ccc2c1N1CC(F)C1 (stereo not drawn) [Example 8],316 to 5010 nM,,> 80%,< 0.1 µg/mL,< 0.1 µg/mL,,,,,,,
Cc1ccc2c(c1)[C@@H](NC(=O)c1cnc3c(-c4cc(F)cc(F)c4F)c(F)ccc3c1N1CC(F)C1)CCO2 [Example 9],316 to 5010 nM,> 80%,> 80%,< 0.1 µg/mL,< 0.1 µg/mL,,,,,,,
O=C(N[C@H]1CCOc2ccc(F)cc21)c1cnc2c(-c3cc(F)cc(F)c3F)c(F)ccc2c1N1CC(F)C1 [Example 10],31.6 to 316 nM,> 80%,> 80%,< 0.1 µg/mL,< 0.1 µg/mL,,,,,< 3.16 nM,,
O=C(N[C@H]1CCCc2ccccc21)c1cnc2c(-c3cc(F)cc(F)c3F)c(F)ccc2c1N1CC(F)C1 [Example 11],,> 80%,> 80%,< 0.1 µg/mL,< 0.1 µg/mL,,,,,< 3.16 nM,,
O=C(N[C@H]1CCc2ccccc21)c1cnc2c(-c3cc(F)cc(F)c3F)c(F)ccc2c1N1CC(F)C1 [Example 12],31.6 to 316 nM,> 80%,> 80%,< 0.1 µg/mL,< 0.1 µg/mL,,,,,< 3.16 nM,,
CC1(C)C[C@H](NC(=O)c2cnc3c(-c4cc(F)cc(F)c4F)c(F)ccc3c2N2CC(F)C2)c2ccccc2O1 [Example 13],316 to 5010 nM,,> 80%,< 0.1 µg/mL,< 0.1 µg/mL,,,,,3.16 to 31.6 nM,,
N#Cc1ccc2c(c1)[C@@H](NC(=O)c1cnc3c(-c4cc(F)cc(F)c4F)c(F)ccc3c1N1CC(F)C1)CCO2 [Example 14],316 to 5010 nM,,> 80%,< 0.1 µg/mL,< 0.1 µg/mL,,,,,31.6 to 316 nM,,
O=C(N[C@H]1CCOc2ccccc21)c1cnc2c(-c3cc(F)cc(F)c3F)cccc2c1N1CC(F)C1 [Example 15],31.6 to 316 nM,> 80%,> 80%,< 0.1 µg/mL,< 0.1 µg/mL,,,,,< 3.16 nM,,
O=C(N[C@H]1CCc2ccccc21)c1cnc2c(-c3cc(F)cc(F)c3F)c(F)ccc2c1C1CCOCC1 [Example 16],3.16 to 31.6 nM,> 80%,> 80%,< 0.1 µg/mL,< 0.1 µg/mL,,,,,< 3.16 nM,,
CC(C)Oc1ccc2c(C3CCOCC3)c(C(=O)N[C@H]3CCOc4ccccc43)cnc2c1-c1cc(F)cc(F)c1F [Example 18],316 to 5010 nM,> 80%,> 80%,< 0.1 µg/mL,< 0.1 µg/mL,,,,,,,
O=C(N[C@H]1CCc2ccccc21)c1cnc2c(-c3cc(F)cc(F)c3F)cccc2c1C1CCOCC1 [Example 19],316 to 5010 nM,> 80%,> 80%,< 0.1 µg/mL,< 0.1 µg/mL,,,,,< 3.16 nM,,
O=C(N[C@H]1CCCc2ccccc21)c1cnc2c(-c3cc(F)cc(F)c3F)cccc2c1C1CCOCC1 [Example 20],31.6 to 316 nM,> 80%,> 80%,< 0.1 µg/mL,< 0.1 µg/mL,,,,,,,
CCc1c(C(=O)N[C@H]2CCOc3ccccc32)cnc2c(-c3cc(F)cc(F)c3F)c(Cl)ccc12 [Example 21],,> 80%,> 80%,< 0.1 µg/mL,< 0.1 µg/mL,,,,,< 3.16 nM,,
CCc1c(C(=O)N[C@H]2CCc3ccccc32)cnc2c(-c3cc(F)cc(F)c3F)c(Cl)ccc12 [Example 22],3.16 to 31.6 nM,> 80%,> 80%,< 0.1 µg/mL,< 0.1 µg/mL,,,,,,,
"O=C(N[C@H]1CCOc2ccccc21)c1cnc2c(Br)c(F)ccc2c1Cl [Intermediate 14A, 8-Bromo-4-chloro-N-[(4S)-3,4-dihydro-2H-chromen-4-yl]-7-fluoroquinoline-3-carboxamide]",,,,,,,,,,,,3.18
"O=C(N[C@H]1CCOc2ccccc21)c1cnc2c(Br)c(F)ccc2c1N1CC(F)C1 [Intermediate 15A, 8-Bromo-N-[(4S)-3,4-dihydro-2H-chromen-4-yl]-7-fluoro-4-(3-fluoroazetidin-1-yl)quinoline-3-carboxamide]",,,,,,,,,,,,1.29
